Experimental data as given in patent publication US20130030017A1, “QUINOLINE DERIVATIVES AS ANTIBACTERIAL AGENTS” (priority 2005, published 2013).
Values after ≈ are worked out from the molar mass of the structure shown.

Tests used:
[1] = test system: Staphylococcus aureus (ATCC29213); assay: Microtitre plate assay, IC90 determination (STA 29213); format: cell-based; settings: 90% inhibitory concentration for bacterial growth, 37° C., resazurin fluorescence; for IC90 STA 29213: 24 hours; for IC90: Staphylococcus aureus, ATCC29213, 24 h
Description: (§1) The bacteria used in this study were grown overnight in flasks containing 100 ml Mueller-Hinton Broth (Becton Dickinson—cat. no. 275730) in sterile de-ionized water, with shaking, at 37° C. Stocks (0.5 ml/tube) were stored at −70° C. until use. Bacteria titrations were performed in microtiter plates and colony forming units (CFUs) were determined. In general, an inoculum level of approximately 100 CFUs was used for susceptibility testing.
(§2) Flat-bottom, sterile 96-well plastic microtiter plates were filled with 180 μl of sterile deionized water, supplemented with 0.25% BSA. Subsequently, stock solutions (7.8× final test concentration) of compounds were added in 45 μl volumes in column 2 Serial five-fold dilutions (45 μl in 180 μl) were made directly in the microtiter plates from column 2 to reach column 11. Untreated control samples with (column 1) and without (column 12) inoculum were included in each microtiter plate. Depending on the bacteria type, approximately 10 to 60 CFU per well of bacteria inoculum (100 TCID50), in a volume of 100 μl in 2.8× Mueller-Hinton broth medium, was added to the rows A to H, except column 12. The same volume of broth medium without inoculum was added to column 12 in row A to H. The cultures were incubated at 37° C. for 24 hours under a normal atmosphere (incubator with open air valve and continuous ventilation). At the end of incubation, one day after inoculation, the bacterial growth was quantitated fluorometrically. Therefore resazurin (0.6 mg/ml) was added in a volume of 20 μl to all wells 3 hours after inoculation, and the plates were re-incubated overnight. A change in colour from blue to pink indicated the growth of bacteria. The fluorescence was read in a computer-controlled fluorometer (Cytofluor Biosearch) at an excitation wavelength of 530 nm and an emission wavelength of 590 nm. The % growth inhibition achieved by the compounds was calculated according to standard methods. The IC90 (expressed in μg/ml) was defined as the 90% inhibitory concentration for bacterial growth.

[2] = test system: Streptococcus pneumoniae (ATCC6305); assay: Microtitre plate assay, IC90 determination (SPN 6305); format: cell-based; settings: 90% inhibitory concentration for bacterial growth, 37° C., resazurin fluorescence; for IC90 SPN 6305: 24 hours; for IC90: Streptococcus pneumoniae, ATCC6305, 24 h
Description: as §1, §2

[3] = test system: Pseudomonas aeruginosa (ATCC27853); assay: Microtitre plate assay, IC90 determination (PAE 27853); format: cell-based; settings: 90% inhibitory concentration for bacterial growth, 37° C., resazurin fluorescence; for IC90 PAE 27853: 24 hours; for IC90: Pseudomonas aeruginosa, ATCC27853, 24 h
Description: as §1, §2

[4] = test system: Enterococcus faecalis (ATCC29212); assay: Microtitre plate assay, IC90 determination (EFA 29212); format: cell-based; settings: 90% inhibitory concentration for bacterial growth, 37° C., resazurin fluorescence; for IC90: Enterococcus faecalis, ATCC29212, 24 h; for IC90 EFA 29212: 24 hours
Description: as §1, §2

[5] = test system: Streptococcus pyogens (ATCC8668); assay: Microtitre plate assay, IC90 determination (SPY 8668); format: cell-based; settings: 90% inhibitory concentration for bacterial growth, 37° C., resazurin fluorescence; for IC90: Streptococcus, ATCC8668, 24 h; for IC90 SPY 8668: 24 hours
Description: as §1, §2

| SMILES | IC90 STA 29213 [1] | IC90 SPN 6305 [2] | melting point | IC90 [2] | IC90 [1] | IC90 PAE 27853 [3] | IC90 [4] | IC90 [5] | IC90 EFA 29212 [4] | IC90 SPY 8668 [5] | IC90 [3] |
| --- | --- | --- | --- | --- | --- | --- | --- | --- | --- | --- | --- |
| COc1nc2ccc(Br)cc2cc1C(c1ccccc1)C(O)(CCN(C)C)Cc1cccc2ccccc12 (stereo not shown) [Compound 41] | 57.0 µg/mL (≈ 100 µM) |  | 112 °C | 2.3 µg/mL (≈ 4.04 µM) |  |  |  |  |  |  |  |
| COc1nc2ccc(Br)cc2cc1C(c1ccccc1)C(O)(CCc1cccc2ccccc12)CCN(C)C (stereo not shown) [Compound 7] | 52.0 µg/mL (≈ 89.1 µM) | 46.4 µg/mL (≈ 79.5 µM) | 206 °C |  |  |  |  |  |  |  |  |
| COc1nc2ccc(Br)cc2cc1C(c1cccc(Cl)c1)C(O)(CCc1ccccc1)CCN(C)C (stereo not shown) [Compound 68] |  | 0.7 µg/mL (≈ 1.23 µM) |  |  | 2.3 µg/mL (≈ 4.05 µM) | 11.3 µg/mL (≈ 19.9 µM) | 56.8 µg/mL (≈ 100 µM) | 56.8 µg/mL (≈ 100 µM) |  |  |  |
| COc1nc2ccc(Br)cc2cc1C(c1cccc(Cl)c1)C(O)(CCc1ccccc1)CCN(C)C (stereo not shown) [Compound 67] | 2.3 µg/mL (≈ 4.05 µM) | 2.3 µg/mL (≈ 4.05 µM) |  |  |  | 56.8 µg/mL (≈ 100 µM) |  |  | 56.8 µg/mL (≈ 100 µM) | 56.8 µg/mL (≈ 100 µM) |  |
| COc1nc2cc(C)c(Br)cc2cc1C(c1ccccc1)C(O)(CCc1ccccc1)CCN(C)C (racemic) [Compound 16] | 19.4 µg/mL (≈ 35.4 µM) | 2.2 µg/mL (≈ 4.02 µM) |  |  |  | 2.2 µg/mL (≈ 4.02 µM) |  |  | 10.9 µg/mL (≈ 19.9 µM) | 2.2 µg/mL (≈ 4.02 µM) |  |
| COc1nc2ccc(Br)cc2cc1C(c1ccccc1)C(O)(CCc1ccccc1)CCN(C)C (stereo not shown) [Compound 19] | 8.5 µg/mL (≈ 15.9 µM) | 2.1 µg/mL (≈ 3.94 µM) |  |  |  | 1.7 µg/mL (≈ 3.19 µM) |  |  | 1.7 µg/mL (≈ 3.19 µM) | 1.7 µg/mL (≈ 3.19 µM) |  |
| COc1nc2ccc(Br)cc2cc1C(c1ccccc1)C(O)(CCc1ccc(C)cc1)CCN(C)C (racemic) [Compound 52] | 6.9 µg/mL (≈ 12.6 µM) | 1.4 µg/mL (≈ 2.56 µM) |  |  |  | 1.7 µg/mL (≈ 3.1 µM) |  |  | 1.7 µg/mL (≈ 3.1 µM) | 1.7 µg/mL (≈ 3.1 µM) |  |
| COc1nc2ccc(Br)cc2cc1C(c1ccc(Cl)cc1)C(O)(CCc1cccc(F)c1)CCN(C)C (stereo not shown) [Compound 77] | 1.9 µg/mL (≈ 3.24 µM) |  |  | 0.8 µg/mL (≈ 1.37 µM) |  |  |  | 1.9 µg/mL (≈ 3.24 µM) | 3.7 µg/mL (≈ 6.31 µM) |  | 1.9 µg/mL (≈ 3.24 µM) |
| COc1nc2ccc(Br)cc2cc1C(c1cccc(C)c1)C(O)(CCc1ccccc1)CCN(C)C (stereo not shown) [Compound 72] | 1.7 µg/mL (≈ 3.1 µM) | 2.2 µg/mL (≈ 4.02 µM) |  |  |  | 43.5 µg/mL (≈ 79.4 µM) |  |  | 43.5 µg/mL (≈ 79.4 µM) | 43.5 µg/mL (≈ 79.4 µM) |  |

Now from value to molecule:

| IC90 STA 29213 [1] | IC90 SPN 6305 [2] | melting point | IC90 [2] | IC90 [1] | IC90 PAE 27853 [3] | IC90 [4] | IC90 [5] | IC90 EFA 29212 [4] | IC90 SPY 8668 [5] | IC90 [3] | SMILES |
| --- | --- | --- | --- | --- | --- | --- | --- | --- | --- | --- | --- |
| 9.3 µg/mL (≈ 15.9 µM) | 2.1 µg/mL (≈ 3.6 µM) | 222 °C |  |  |  |  |  |  |  |  | CSc1nc2ccc(Br)cc2cc1C(c1ccc(Cl)cc1)C(O)(CCc1ccccc1)CCN(C)C (stereo not shown) [Compound 32] |
| 48.5 µg/mL (≈ 100 µM) | 7.7 µg/mL (≈ 15.9 µM) | 180 °C |  |  |  |  |  |  |  |  | CSc1nc2ccc(C)cc2cc1C(c1ccccc1)C(O)(CCc1ccccc1)CCN(C)C (stereo not shown) [Compound 29] |
| 2.5 µg/mL (≈ 4.05 µM) | 0.4 µg/mL (≈ 0.648 µM) |  |  |  | 0.7 µg/mL (≈ 1.13 µM) |  |  | 2.2 µg/mL (≈ 3.56 µM) | 2.0 µg/mL (≈ 3.24 µM) |  | COc1nc2ccc(Br)cc2cc1C(c1ccccc1)C(O)(CCc1cccc(OC(F)(F)F)c1)CCN(C)C (racemic) [Compound 45] |
|  | 0.5 µg/mL (≈ 0.884 µM) |  |  | 1.8 µg/mL (≈ 3.18 µM) | 4.0 µg/mL (≈ 7.07 µM) |  | 1.8 µg/mL (≈ 3.18 µM) | 9.0 µg/mL (≈ 15.9 µM) |  |  | COc1nc2ccc(Br)cc2cc1C(c1cccc(C)c1)C(O)(CCc1ccc(F)cc1)CCN(C)C (stereo not shown) [Compound 83] |
| 1.9 µg/mL (≈ 3.24 µM) | 0.6 µg/mL (≈ 1.02 µM) |  |  |  |  | 9.3 µg/mL (≈ 15.9 µM) | 1.9 µg/mL (≈ 3.24 µM) |  |  | 1.9 µg/mL (≈ 3.24 µM) | COc1nc2ccc(Br)cc2cc1C(c1cccc(Cl)c1)C(O)(CCc1ccc(F)cc1)CCN(C)C (stereo not shown) [Compound 81] |
| 10.1 µg/mL (≈ 17.8 µM) | 2.3 µg/mL (≈ 4.05 µM) |  |  |  | 2.0 µg/mL (≈ 3.52 µM) |  |  | 4.5 µg/mL (≈ 7.92 µM) | 2.0 µg/mL (≈ 3.52 µM) |  | COc1nc2ccc(Br)cc2cc1C(c1ccccc1)C(O)(CCc1ccccc1Cl)CCN(C)C (racemic) [Compound 54] |
